Assays:
[1] = pH shift dissolution test (pH 1.5 to 6.5); type: physicochemical; details: for % Agent in Solution t = 2 mins: 2 minutes after adjustment of medium from pH 1.5 to pH 6.5, 37° C.; for % Agent in Solution t = 30 mins: 30 minutes after adjustment of medium from pH 1.5 to pH 6.5, 37° C.; for % Agent in Solution t = 60 mins: 60 minutes after adjustment of medium from pH 1.5 to pH 6.5, 37° C.; for % Agent in Solution t = 0 (˜pH 1.5): % by weight dissolved after 60 minutes in 0.07N HCl/0.2% NaCl medium, 37° C., before pH shift, >100% from HPLC experimental error; for Mean pH of medium at 60 minutes after pH adjustment (n = 2): pH shift test, 60 minutes after adjustment from pH 1.5 to pH 6.5
Method: The vial was then rinsed with a further 50 ml of fresh dissolution medium and the washings added to the main dissolution medium to ensure complete transfer of the composition (total volume of medium 500 ml). The Control sample was weighed into a volumetric flask and pre-dissolved in 50 ml of dissolution medium via sonication. The composition was then added to 400 ml of dissolution medium. The flask was rinsed with a further 50 ml of fresh dissolution medium and the washings added to the main dissolution medium to ensure complete transfer of the composition (total volume of medium=500 ml). After 60 minutes at 37° C. (paddle speed 100 rpm) a sample (5 ml) was taken and 5 ml of fresh medium was added to retain a constant volume of dissolution medium.
The resulting solution was then made up to 100 ml with MilliQ water.
Samples (5 ml) were then removed with a plastic syringe at 2, 5, 15, 30, 45 and 60 minutes after pH adjustment and fresh medium (pH 6.5) added to maintain a constant volume of dissolution medium. […] ODS-3^1. (with guard) • detection wavelength: 247 nm • flow rate: 0.9 ml/min • injection volume: 20 μl • retention time: approximately 6 minutes
Footnote: column ex Hichrom containing 3 μm beads.

[2] = pH 6.5 dissolution test; type: physicochemical; details: for % Agent in solution after 5 minutes in pH 6.5 medium / % Agent in solution after 30 minutes in pH 6.5 medium / % Agent in solution after 60 minutes in pH 6.5 medium: 37° C., 500 ml, 250 mg Agent; for Mean pH of medium at 60 minutes (n = 2) / Mean pH of medium at end of experiment (n = 2): pH 6.5 dissolution test; for Mean pH of medium at end of experiment (n = 2): final pH measured after 60 minutes
Method: The following test measures dissolution of a composition in a pH 6.5 dissolution medium and simulates the pH environment found in the upper intestine.
The composition to be tested was placed into a 500 ml of a stirred dissolution medium at pH 6.5 at 37° C. (paddle speed 100 rpm). […] A fresh sample of dissolution medium was added after every sampling time point to maintain a constant volume of 500 ml dissolution medium throughout the test.
The vial was then rinsed with a further 50 ml of fresh dissolution medium and the washings added to the main dissolution medium to ensure complete transfer of the composition (total volume of dissolution medium=500 ml).

[3] = test system: non-small-cell lung cancer; details: 250 mg/day, non-small-cell lung cancer patients, IDEAL 1 and 2; cited from earlier work
[4] = pKa and pH dependent aqueous solubility of the Agent; type: physicochemical

COc1cc2ncnc(Nc3ccc(F)c(Cl)c3)c2cc1OCCCN1CCOCC1 [Comparative 4, 4-(3′-chloro4′-fluoroanilino)-7-methoxy-6-(3-morpholinopropoxy)quinazoline]
% Agent in Solution t = 2 mins [1]: 19.56%
% Agent in Solution t = 30 mins [1]: 5.16%
% Agent in Solution t = 60 mins [1]: 3.30%
% Agent in Solution t = 0 (˜pH 1.5) [1]: 97.74%
Mean pH of medium at 60 minutes after pH adjustment (n = 2) [1]: 6.32
% Agent in solution after 5 minutes in pH 6.5 medium [2]: 3.52%
% Agent in solution after 30 minutes in pH 6.5 medium [2]: 1.54%
% Agent in solution after 60 minutes in pH 6.5 medium [2]: 1.21%
% Agent in solution after 60 minutes in pH 6.5 medium ([2]; listed as Comparative Example 4): 1.21%
Mean pH of medium at 60 minutes (n = 2) [2]: 6.33
Mean pH of medium at end of experiment (n = 2) [2]: 6.33

COc1cc2ncnc(Nc3ccc(F)c(Cl)c3)c2cc1OCCCN1CCOCC1 [Agent, 4-(3′-chloro4′-fluoroanilino)-7-methoxy-6-(3-morpholinopropoxy)quinazoline]
% Agent in Solution t = 2 mins ([1]; listed as Control): 6.50%
% Agent in Solution t = 30 mins ([1]; listed as Control): 3.04%
% Agent in Solution t = 60 mins ([1]; listed as Control): 2.27%
% Agent in Solution t = 0 (˜pH 1.5) ([1]; listed as Control): 102.61%
Mean pH of medium at 60 minutes after pH adjustment (n = 2) ([1]; listed as Control): 6.55
% Agent in solution after 5 minutes in pH 6.5 medium ([2]; listed as Control): 0.70%
% Agent in solution after 30 minutes in pH 6.5 medium ([2]; listed as Control): 1.52%
% Agent in solution after 60 minutes in pH 6.5 medium ([2]; listed as Control): 1.40%
Mean pH of medium at 60 minutes (n = 2) ([2]; listed as Control): 6.52
Mean pH of medium at end of experiment (n = 2) ([2]; listed as Control): 6.52
adverse events [3]: majority of adverse events generally being mild to moderate skin and gastrointestinal disorders
response rates [3]: 11.8-18.4%
Solubility (in words) ([4]; free-base form, above pH 7): practically insoluble
Solubility (in words) ([4]; free-base form, pH 1): soluble
Solubility: aqueous solvent required to dissolve 1 g of Agent ([4]; free-base form, pH 6): ≥ 10000 mL
pKa ([4]; two basic groups): ~5.3
